Earlier results on two compounds are cited in patent US20250065012A1, “DIRECTIONAL AND TEMPORAL RELEASE OF DRUGS FROM MEDICAL DEVICES” (NANO THERAPEUTICS PRIVATE LIMITED, priority 2022, published 2025).

SMILES strings stand for the structures. Structures can show the parent of a compound that is named as a salt.

For data set [1] the following is noted: injected intravenously.
Data set [2] relates to platelet aggregation. Particulars: after systemic administration.

In the case of `CCCCS(=O)(=O)N[C@@H](Cc1ccc(OCCCCC2CCNCC2)cc1)C(=O)O` [Tirofiban HCl], in data set [1], the “increase in bleeding time” value is 3-4 fold and the “increase in clotting time” value is 3-4 fold.

Consider `CCCCS(=O)(=O)N[C@@H](Cc1ccc(OCCCCC2CCNCC2)cc1)C(=O)O` [Tirofiban], for which the platelet aggregation inhibition result in data set [2] is reported as “up to 96%”.
